This passage reports IC50 results from patent US20260193271A1, “PAN-KRAS INHIBITOR COMPOUND” (ADLAI NORTYE BIOPHARMA CO., LTD., priority 2022, published 2026).

In assay [1] the test system is SW480 (G12V). The assay is described as follows: In vitro cell proliferation inhibition test (CellTiter-Glo), SW480. In kind it is cell-based. The note with it: Homo sapiens, SW480 colon cell line, KRAS (p.G12V), 72 h co-incubation. The text has this: Test Example 1: In Vitro Cell Proliferation Inhibition Test
Due to the diversity of RAS mutations and in order to evaluate the activity of compounds in different RAS mutation cell lines, we selected KRAS^WT, KRAS^G12C, KRAS^G12D, KRAS^G12V and BRAF mutation cell lines (see the table below) for in vitro activity evaluation and screening of compounds.
Protocol: CellTiter-Glo® Cell Luminescent Viability Assay (Promega)
According to the doubling time of different cell lines, different numbers of cells (1000-5000 cells/well) were seeded in 96-well plates containing 180 μl of corresponding culture medium and cultured overnight in a cell culture incubator at 37° C. with 5% CO2. On the second day, the test compound was pre-diluted 3-fold with culture medium, with the highest concentration being 100 μM, for a total of 10 concentration gradients; then 20 μl of culture medium containing different concentrations of the compound was added to the cells in the 96-well plate to ensure that the final concentration of the compound was up to 10 μM, with 10 concentration gradients of 3-fold dilution. After the cells and compounds were co-incubated for 72 h, the 96-well plate was removed from the incubator and equilibrated at room temperature for 30 min. Then, 25 μl of CellTiter-Glo® Reagent was added to each well and mixed thoroughly. The mixture was incubated at room temperature for 10 min, and then 100 μl of the sample was transferred to a white 96-well plate (OptiPlate™-96, PerkinElmer). The […] signal value was read using a multi-function microplate reader (SpectraMax® i3x, Molecular devices). The signal values were then standardized, and the curve was fitted using a four-parameter regression equation to calculate the half maximal inhibitory concentration (IC50) of the compound on the cell line.

The subject of assay [2] is AsPC-1 (G12D). The assay is described as follows: In vitro cell proliferation inhibition test (CellTiter-Glo), AsPC-1. Format: cell-based. The note with it: Homo sapiens, ASPC1, AsPC-1 pancreas cell line, KRAS (p.G12D), 72 h co-incubation. The procedure, abridged:
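Cells were seeded at 1000-5000/well by doubling time and cultured overnight at 37 °C, 5% CO2. They were then exposed for 72 h to 10-point, 3-fold compound dilutions (final top 10 μM), and viability was read by CellTiter-Glo luminescence. IC50 came from normalized signals fitted by four-parameter regression.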
For orientation: Cellular ATP, detected with luciferase, serves as a proxy for viable cell number.

Regarding `CCn1c(-c2cc(-c3cnn(C4CN(C)C4)c3)cnc2[C@H](C)OC)c2c3cc(ccc31)-c1csc(n1)C[C@H](NC(=O)[C@H]1[C@H](C)[C@@H]1C)C(=O)N1CCC[C@H](N1)C(=O)OCC(C)(C)C2` (atropisomer, axis not shown) [Compound 17, (1r,2R,3S)-N-((6^3S,4S,Z)-1^1-ethyl-1^2-(2-((S)-1-methoxyethyl)-5-(1-(1-methylazetidin-3-yl)-1H-pyrazol-4-yl)pyridin-3-yl)-10,10-dimethyl-5,7-dioxo-6^1,6^2,6^3,6^4,6^5,6^6-hexahydro-1^1H-8-oxa-2(4,2)-thiazola-1(5,3)-indola-6(1,3)-pyridazinacycloundecaphane-4-yl)-2,3-dimethylcyclopropane-1-carboxamide], the IC50 in assay [1] was 2.5 nM; in assay [2], 0.31 nM.

Turning to `CCn1c(-c2cc(-c3cnn(C4CCN(C)CC4)c3)cnc2[C@H](C)OC)c2c3cc(ccc31)-c1csc(n1)C[C@H](NC(=O)[C@H]1[C@H](C)[C@@H]1C)C(=O)N1CCC[C@H](N1)C(=O)OCC(C)(C)C2` (atropisomer, axis not shown) [Compound 18, (1r,2R,3S)-N-((6^3S,4S,Z)-1^1-ethyl-1^2-(2-((S)-1-methoxyethyl)-5-(1-(1-methylpiperidin-4-yl)-1H-pyrazol-4-yl)pyridin-3-yl)-10,10-dimethyl-5,7-dioxo-6^1,6^2,6^3,6^4,6^5,6^6-hexahydro-1^1H-8-oxa-2(4,2)-thiazola-1(5,3)-indola-6(1,3)-pyridazinacycloundecaphane-4-yl)-2,3-dimethylcyclopropane-1-carboxamide], the concentration for half-maximal inhibition (IC50) in assay [1] came to 1.4 nM; in assay [2], 0.45 nM.

As to `CCn1c(-c2cc(-c3cnn(CCN4CCN(C)CC4)c3)cnc2[C@H](C)OC)c2c3cc(ccc31)-c1csc(n1)C[C@H](NC(=O)[C@H]1[C@H](C)[C@@H]1C)C(=O)N1CCC[C@H](N1)C(=O)OCC(C)(C)C2` (atropisomer, axis not shown) [Compound 19, (1r,2R,3S)-N-((6^3S,4S,Z)-1^1-ethyl-1^2-(2-((S)-1-methoxyethyl)-5-(1-(2-(4-methylpiperazin-1-yl)ethyl)-1H-pyrazol-4-yl)pyridin-3-yl)-10,10-dimethyl-5,7-dioxo-6^1,6^2,6^3,6^4,6^5,6^6-hexahydro-1^1H-8-oxa-2(4,2)-thiazola-1(5,3)-indola-6(1,3)-pyridazinacycloundecaphane-4-yl)-2,3-dimethylcyclopropane-1-carboxamide], the IC50 in assay [1] is 4.5 nM; in assay [2] it was 0.57 nM.

On to `CCn1c(-c2cc(-c3nc(C)n(C)n3)cnc2[C@H](C)OC)c2c3cc(ccc31)-c1csc(n1)C[C@H](NC(=O)[C@H]1C[C@@H]1C)C(=O)N1CCC[C@H](N1)C(=O)OCC(C)(C)C2` (atropisomer, axis not shown) [Compound 20, (1S,2S)-N-((6^3S,4S,Z)-1^2-(5-(4,5-dimethyl-4H-1,2,4-triazol-3-yl)-2-((S)-1-methoxyethyl)pyridin-3-yl)-1^1-ethyl-10,10-dimethyl-5,7-dioxo-6^1,6^2,6^3,6^4,6^5,6^6-hexahydro-1^1H-8-oxa-2(4,2)-thiazola-1(5,3)-indola-6(1,3)-pyridazinacycloundecaphane-4-yl)-2-methylcyclopropane-1-carboxamide], for which the concentration for half-maximal inhibition (IC50) in assay [1] is 3 nM; in assay [2], 3.4 nM.

`CCn1c(-c2cc(-c3nc(C)no3)cnc2[C@H](C)OC)c2c3cc(ccc31)-c1csc(n1)C[C@H](NC(=O)[C@H]1C[C@@H]1C)C(=O)N1CCC[C@H](N1)C(=O)OCC(C)(C)C2` (atropisomer, axis not shown) [Compound 21, (1S,2S)-N-((6^3S,4S,Z)-1^1-ethyl-1^2-(2-((S)-1-methoxyethyl)-5-(3-methyl-1,2,4-oxadiazol-5-yl)pyridin-3-yl)-10,10-dimethyl-5,7-dioxo-6^1,6^2,6^3,6^4,6^5,6^6-hexahydro-1^1H-8-oxa-2(4,2)-thiazola-1(5,3)-indola-6(1,3)-pyridazinacycloundecaphane-4-yl)-2-methylcyclopropane-1-carboxamide]: the IC50 in assay [1] was 15 nM; in assay [2], 11 nM.

A word on the IC50: it is the concentration at which inhibition is half-maximal.
